Laboratory results: ChEMBL document CHEMBL1131699, “Monoacetyldiglycerides as new Ca2+ mobilizing agents in rat pancreatic acinar cells” (1999)
Calls of active or inactive are those of the source. No cut-off for these calls is given here.

Tests used:
Rattus norvegicus [1] = species on record: Rattus norvegicus; assay: Compound was tested in vitro for its ability to increase [Ca+2] in pancreatic acinar cells at a concentration of 0.01 mg/mL; Active; format: functional, cell-based
Rattus norvegicus [2] = species on record: Rattus norvegicus; assay: Compound was tested in vitro for its ability to increase [Ca+2] in pancreatic acinar cells at a concentration of 0.01 mg/mL.; format: functional
Rattus norvegicus [3] = species on record: Rattus norvegicus; assay: Compound was tested in vitro for its ability to increase the rate of [Ca+2] mobilization in pancreatic acinar cells; format: functional

`CCCCCCCCCCCCCCCC(=O)OCC(COC(C)=O)OC(=O)[C@H]1C[C@@H]1c1ccccc1` (some centres undefined) was tested, and the “Increase in [Ca+2]” value (Rattus norvegicus [1]) was “Active”.
With `CCCCCCCC/C=C\CCCCCCCC(=O)OC(COC(C)=O)COC(=O)CCCCCCCCCCCCCCC` (centres undefined) the “Increase in [Ca+2]” value (Rattus norvegicus [2]) was 26.6 nM.
For `CCCCCCCC/C=C\CCCCCCCC(=O)OCC(COC(C)=O)OC(=O)CCCCCCCCCCCCCCC` (centres undefined), the “Increase in [Ca+2]” value (Rattus norvegicus [2]) was 31.2 nM.
`CCCCC/C=C\C/C=C\CCCCCCCC(=O)OC(COC(C)=O)COC(=O)CCCCCCCCCCCCCCC` (centres undefined) [MOSEDIPIMOD] was tested, and the “Rate of [Ca+2] increase” value (Rattus norvegicus [3]) was 9.8 nM/min and the “Increase in [Ca+2]” value (Rattus norvegicus [2]) was 84.9 nM.
In the case of `CC/C=C\C/C=C\C/C=C\CCCCCCCC(=O)OC(COC(C)=O)COC(=O)CCCCCCCCCCCCCCC` (centres undefined), the “Increase in [Ca+2]” value (Rattus norvegicus [1]) is reported as “Active”.
`CCCCC/C=C\C/C=C\C/C=C\C/C=C\CCCC(=O)OC(COC(C)=O)COC(=O)CCCCCCCCCCCCCCC` (centres undefined) was tested, and the “Increase in [Ca+2]” value (Rattus norvegicus [2]) was 32.8 nM.
For `CC/C=C\C/C=C\C/C=C\C/C=C\C/C=C\C/C=C\CCC(=O)OC(COC(C)=O)COC(=O)CCCCCCCCCCCCCCC` (centres undefined), the “Rate of [Ca+2] increase” value (Rattus norvegicus [3]) was 26.7 nM/min and the “Increase in [Ca+2]” value (Rattus norvegicus [2]) was 75.2 nM.
